Calls of active or inactive are those of the source. The calls are words filed in the database; no cut-off is given here.

The test system of assay [1] is HL-60. Put plainly: Antiproliferative activity against human HL60 cells by MTT assay. The format is functional, cell-based.
For assay [2], the system named is HL-60. As to the kind of experiment: Induction of apoptosis in human HL60 cells. The format is functional, cell-based.
Setting [3] is: Homo sapiens, HL-60, read-out: IC50.

With `CC(C)C[C@H]1O[C@H](COCc2ccccc2)[C@@H](OCc2ccccc2)[C@H](OCc2ccccc2)[C@@H]1O`, the concentration for half-maximal inhibition (IC50) entry in assay [1] (hl-60) is reported as “Not Active”. `O[C@@H]1[C@@H](OCc2ccccc2)[C@H](OCc2ccccc2)[C@@H](COCc2ccccc2)O[C@@H]1c1ccccc1`: in assay [1] (hl-60), the IC50 entry is on record as “Not Active”. Turning to `O[C@@H]1[C@@H](OCc2ccccc2)[C@H](OCc2ccccc2)[C@@H](COCc2ccccc2)O[C@@H]1Cc1ccccc1`, in assay [1] (hl-60), the concentration for half-maximal inhibition (IC50) entry is listed as “Not Active”. The same measure, in the same setting: the value for `C=C[C@H]1O[C@H](COCc2ccccc2)[C@@H](OCc2ccccc2)[C@H](OCc2ccccc2)[C@H]1O` was “Not Active”; that for `C=C[C@H]1O[C@H](COCc2ccccc2)[C@@H](OCc2ccccc2)[C@H](OCc2ccccc2)[C@H]1OC(C)=O` was “Not Active”; that for `OC[C@H]1O[C@@H](Cc2ccccc2)[C@H](O)[C@@H](O)[C@@H]1OCc1ccccc1` was “Not Active”. On to `C=C[C@@H]1O[C@H](COCc2ccccc2)[C@@H](OCc2ccccc2)[C@H](OCc2ccccc2)[C@H]1O`, for which the IC50 in assay [1] (setting [3]) turned out to be 11.8 µM.

`CC(=O)O[C@@H]1[C@@H](OCc2ccccc2)[C@H](OCc2ccccc2)[C@@H](COCc2ccccc2)O[C@H]1Cc1ccccc1`: in assay [1] (hl-60), the IC50 result was “Not Active”. For `C=CC[C@@H]1O[C@H](COCc2ccccc2)[C@@H](OCc2ccccc2)[C@H](OCc2ccccc2)[C@H]1OC(C)=O`, the IC50 in assay [1] (setting [3]) stood at 26.9 µM. In the case of `CC[C@H]1O[C@H](COCc2ccccc2)[C@@H](OCc2ccccc2)[C@H](OCc2ccccc2)[C@H]1O`, the IC50 result in assay [1] (hl-60) is on record as “Not Active”. On to `O[C@@H]1[C@@H](OCc2ccccc2)[C@H](OCc2ccccc2)[C@@H](COCc2ccccc2)O[C@@]12CCCO2`, for which, in assay [1] (hl-60), the IC50 result is “Not Active”. As to `O[C@@H]1[C@@H](OCc2ccccc2)[C@H](OCc2ccccc2)[C@@H](COCc2ccccc2)O[C@]12CCCO2`, the IC50 entry in assay [1] (hl-60) is “Not Active”. On to `C[C@@H]1O[C@H](COCc2ccccc2)[C@@H](OCc2ccccc2)[C@H](OCc2ccccc2)[C@H]1O`, for which the IC50 in assay [1] (setting [3]) was found to be 8.4 µM. Consider `CCCC[C@@H]1O[C@H](COCc2ccccc2)[C@@H](OCc2ccccc2)[C@H](OCc2ccccc2)[C@H]1O`, for which the concentration for half-maximal inhibition (IC50) entry in assay [1] (hl-60) is “Not Active”.

Consider `CCC[C@H]1O[C@H](COCc2ccccc2)[C@@H](OCc2ccccc2)[C@H](OCc2ccccc2)[C@H]1O`, for which the IC50 in assay [1] (setting [3]) turned out to be 28.2 µM.

`CC(C)C[C@@H]1O[C@H](COCc2ccccc2)[C@@H](OCc2ccccc2)[C@H](OCc2ccccc2)[C@H]1O`: in assay [1] (setting [3]), the 50% inhibitory concentration (IC50) is 8.5 µM. For the same compound, in assay [2], the outcome was Active. With `CCCC[C@H]1O[C@H](COCc2ccccc2)[C@@H](OCc2ccccc2)[C@H](OCc2ccccc2)[C@H]1O`, the 50% inhibitory concentration (IC50) entry in assay [1] (hl-60) was “Not Active”. As for `CCC[C@@H]1O[C@H](COCc2ccccc2)[C@@H](OCc2ccccc2)[C@H](OCc2ccccc2)[C@@H]1O`, the 50% inhibitory concentration (IC50) entry in assay [1] (hl-60) is “Not Active”. `CC(C)C[C@@H]1O[C@H](COCc2ccccc2)[C@H](OCc2ccccc2)[C@H](OCc2ccccc2)[C@H]1O`: the IC50 entry in assay [1] (hl-60) is on record as “Not Active”. With `O[C@@H]1[C@@H](O)[C@H](Cc2ccccc2)O[C@H](COCc2ccccc2)[C@H]1O`, in assay [1] (hl-60), the half-inhibitory concentration (IC50) entry is recorded as “Not Active”. Consider `CC(C)C[C@@H]1O[C@H](COCc2ccccc2)[C@@H](OCc2ccccc2)[C@H](OCc2ccccc2)[C@@H]1O`, for which, in assay [1] (hl-60), the half-maximal inhibitory concentration (IC50) result is given as “Not Active”. Regarding `CC1(C)OC[C@@H]2O[C@H](COCc3ccccc3)[C@@H](OCc3ccccc3)[C@H](OCc3ccccc3)[C@H]2O1`, the concentration for half-maximal inhibition (IC50) in assay [1] (setting [3]) is 12.5 µM. In addition, the result in assay [2] was Active. Regarding `OC[C@H]1O[C@@H](Cc2ccccc2)[C@H](O)[C@@H](O)[C@@H]1O`, the IC50 entry in assay [1] (hl-60) was “Not Active”. In the case of `CC[C@@H]1O[C@H](COCc2ccccc2)[C@@H](OCc2ccccc2)[C@H](OCc2ccccc2)[C@H]1O`, the IC50 in assay [1] (setting [3]) is 8.2 µM. For the same compound, in assay [2], the outcome was Active. For the compound `CCC[C@H]1O[C@H](COCc2ccccc2)[C@H](OCc2ccccc2)[C@H](OCc2ccccc2)[C@H]1O`, the IC50 result in assay [1] (hl-60) is “Not Active”. Regarding `C=CC[C@@H]1O[C@H](COCc2ccccc2)[C@@H](OCc2ccccc2)[C@H](OCc2ccccc2)C1O` (single isomer, unassigned), the IC50 entry in assay [1] (hl-60) was “Not Active”.

For the compound `OCCC[C@@H]1O[C@H](COCc2ccccc2)[C@@H](OCc2ccccc2)[C@H](OCc2ccccc2)[C@H]1O`, the IC50 in assay [1] (setting [3]) came to 19.3 µM. Regarding `CCCCOC[C@H]1O[C@@H](CCC)[C@H](O)[C@@H](OCCCC)[C@@H]1OCCCC`, the 50% inhibitory concentration (IC50) entry in assay [1] (hl-60) was “Not Active”.

Take `CC(=O)OC[C@@H]1O[C@H](COCc2ccccc2)[C@@H](OCc2ccccc2)[C@H](OCc2ccccc2)[C@H]1OCc1ccccc1`: in assay [1] (hl-60), the IC50 entry is given as “Not Active”. On the same count and under the same terms, next, `C[C@H]1O[C@H](COCc2ccccc2)[C@@H](OCc2ccccc2)[C@H](OCc2ccccc2)[C@H]1O`: “Not Active”. For `ClC1(Cl)[C@@H]2[C@@H](OCc3ccccc3)[C@H](OCc3ccccc3)[C@@H](COCc3ccccc3)O[C@@H]21`, the IC50 in assay [1] (setting [3]) is 46.4 µM. For the compound `CC(C)C[C@H]1O[C@H](COCc2ccccc2)[C@H](OCc2ccccc2)[C@H](OCc2ccccc2)[C@H]1O`, the IC50 entry in assay [1] (hl-60) was “Not Active”. With `OC[C@H]1O[C@@H](Cc2ccccc2)[C@H](O)[C@@H](OCc2ccccc2)[C@@H]1O`, the IC50 entry in assay [1] (hl-60) is “Not Active”. Regarding `O[C@@H]1[C@@H](O)[C@H](Cc2ccccc2)O[C@H](COCc2ccccc2)[C@H]1OCc1ccccc1`, the IC50 in assay [1] (setting [3]) was 26.6 µM. Consider `CC(=O)OC[C@H]1O[C@@H](Cc2ccccc2)[C@H](OC(C)=O)[C@@H](OC(C)=O)[C@@H]1OC(C)=O`, for which, in assay [1] (hl-60), the IC50 result was “Not Active”. Regarding `OC[C@H]1O[C@@H](Cc2ccccc2)[C@H](O)[C@@H](OCc2ccccc2)[C@@H]1OCc1ccccc1`, the IC50 in assay [1] (setting [3]) was 20.2 µM. In the case of `CCC[C@@H]1O[C@H](COC)[C@@H](OC)[C@H](OC)[C@H]1O`, the IC50 entry in assay [1] (hl-60) is reported as “Not Active”. With `O[C@@H]1[C@@H](OCc2ccccc2)[C@H](O)[C@@H](COCc2ccccc2)O[C@H]1Cc1ccccc1`, the IC50 in assay [1] (setting [3]) came out at 35.3 µM. `CCC[C@@H]1O[C@H](CO)[C@@H](O)[C@H](O)[C@H]1O`: the IC50 result in assay [1] (hl-60) is “Not Active”. Consider `CCCCC[C@@H]1O[C@H](COCc2ccccc2)[C@@H](OCc2ccccc2)[C@H](OCc2ccccc2)[C@H]1O`, for which the IC50 result in assay [1] (hl-60) is listed as “Not Active”. `CC(=O)O[C@@H]1[C@@H](OCc2ccccc2)[C@H](OCc2ccccc2)[C@@H](COCc2ccccc2)O[C@@H]1Cc1ccccc1`: in assay [1] (hl-60), the concentration for half-maximal inhibition (IC50) entry is “Not Active”. For the compound `CC(=O)OC[C@@H]1O[C@H](COCc2ccccc2)[C@@H](OCc2ccccc2)[C@H](OCc2ccccc2)[C@H]1OC(C)=O`, in assay [1] (hl-60), the half-maximal inhibitory concentration (IC50) result is given as “Not Active”.

In the case of `c1ccc(COC[C@H]2O[C@H]3C[C@H]3[C@@H](OCc3ccccc3)[C@@H]2OCc2ccccc2)cc1`, the IC50 result in assay [1] (hl-60) is on record as “Not Active”.

With `CCC[C@@H]1O[C@H](COCc2ccccc2)[C@@H](OCc2ccccc2)[C@H](OCc2ccccc2)[C@H]1O`, the 50% inhibitory concentration (IC50) in assay [1] (setting [3]) is 11.7 µM. Take `C=CC[C@@H]1O[C@H](COC(C)=O)[C@@H](OC(C)=O)[C@H](OC(C)=O)[C@H]1OC(C)=O`: the IC50 entry in assay [1] (hl-60) is on record as “Not Active”.

For the compound `CCCCCCCCCCCCCCCOC[C@H]1O[C@H](CCC)[C@H](O)[C@@H](OCCCCCCCCCCCCCCC)[C@@H]1OCCCCCCCCCCCCCCC`, the IC50 entry in assay [1] (hl-60) is “Not Active”.

For `O[C@@H]1[C@@H](OCc2ccccc2)[C@H](OCc2ccccc2)[C@@H](COCc2ccccc2)O[C@H]1CC1CC1`, the 50% inhibitory concentration (IC50) result in assay [1] (hl-60) is reported as “Not Active”. On to `CC(C)(C)C[C@H]1O[C@H](COCc2ccccc2)[C@@H](OCc2ccccc2)[C@H](OCc2ccccc2)[C@H]1O`, for which the IC50 in assay [1] (setting [3]) was determined as 12.1 µM. On to `C=CC[C@@H]1O[C@H](COCc2ccccc2)[C@@H](OCc2ccccc2)[C@H](OCc2ccccc2)C1=O`, for which, in assay [1] (setting [3]), the IC50 is 31.8 µM. On to `C=CC[C@@H]1O[C@H](COCc2ccccc2)[C@@H](OCc2ccccc2)[C@H](OCc2ccccc2)[C@H]1O`, for which the half-maximal inhibitory concentration (IC50) in assay [1] (setting [3]) stood at 15.1 µM. Further, the outcome in assay [2] was Active. Consider `O[C@@H]1[C@@H](OCc2ccccc2)[C@H](OCc2ccccc2)[C@@H](COCc2ccccc2)O[C@H]1CC1CCCCC1`, for which, in assay [1] (setting [3]), the IC50 came to 4.1 µM. Take `CCC[C@@H]1O[C@H](COCc2ccccc2)[C@H](OCc2ccccc2)[C@H](OCc2ccccc2)[C@H]1O`: the IC50 result in assay [1] (hl-60) is “Not Active”. `CC(C)(C)C[C@@H]1O[C@H](COCc2ccccc2)[C@@H](OCc2ccccc2)[C@H](OCc2ccccc2)[C@H]1O`: the IC50 result in assay [1] (hl-60) was “Not Active”. For the compound `O[C@@H]1[C@@H](OCc2ccccc2)[C@H](OCc2ccccc2)[C@@H](COCc2ccccc2)O[C@@H]1CC1CCCCC1`, the IC50 in assay [1] (setting [3]) turned out to be 17.2 µM.

As to `C#CC[C@@H]1O[C@H](COCc2ccccc2)[C@@H](OCc2ccccc2)[C@H](OCc2ccccc2)[C@H]1O`, the concentration for half-maximal inhibition (IC50) result in assay [1] (hl-60) is given as “Not Active”. For the compound `c1ccc(COC[C@H]2O[C@@H]3C[C@@H]3[C@@H](OCc3ccccc3)[C@@H]2OCc2ccccc2)cc1`, in assay [1] (setting [3]), the concentration for half-maximal inhibition (IC50) was found to be 38.5 µM. For `CCCCCCCCCCCCCCCOC[C@H]1O[C@@H](CCC)[C@H](O)[C@@H](OCCCCCCCCCCCCCCC)[C@@H]1OCCCCCCCCCCCCCCC`, in assay [1] (hl-60), the IC50 result is reported as “Not Active”. Regarding `CC(C)C[C@H]1O[C@H](COCc2ccccc2)[C@@H](OCc2ccccc2)[C@H](OCc2ccccc2)[C@H]1O`, the IC50 in assay [1] (setting [3]) came to 13.9 µM. On to `CCC[C@H]1O[C@H](COCc2ccccc2)[C@@H](OCc2ccccc2)[C@H](OCc2ccccc2)[C@@H]1O`, for which, in assay [1] (hl-60), the 50% inhibitory concentration (IC50) result is “Not Active”. With `O[C@@H]1[C@@H](OCc2ccccc2)[C@H](OCc2ccccc2)[C@@H](COCc2ccccc2)O[C@H]1c1ccccc1`, in assay [1] (setting [3]), the half-inhibitory concentration (IC50) is 26.3 µM. Turning to `c1ccc(COC[C@H]2OCC[C@@H](OCc3ccccc3)[C@@H]2OCc2ccccc2)cc1`, the IC50 in assay [1] (setting [3]) worked out at 39.3 µM.

With `O[C@H]1CO[C@H](COCc2ccccc2)[C@@H](OCc2ccccc2)[C@@H]1OCc1ccccc1`, in assay [1] (hl-60), the concentration for half-maximal inhibition (IC50) result was “Not Active”.

As for `O[C@@H]1[C@@H](OCc2ccccc2)[C@H](OCc2ccccc2)[C@@H](COCc2ccccc2)O[C@H]1Cc1ccccc1`, the IC50 in assay [1] (setting [3]) turned out to be 8.7 µM. On to `C=CC[C@@H]1O[C@H](CO)[C@@H](O)[C@H](O)[C@H]1O`, for which the IC50 entry in assay [1] (hl-60) is “Not Active”.

(Values after ChEMBL document CHEMBL1146189, “Antiproliferation and apoptosis induced by C-glycosides in human leukemia cancer cells” (Bioorg Med Chem Lett, 2006).)
